One test concerns the target T1, 5-HT1AR (Homo sapiens, UniProt P08908).
T1 construct: expressed in transfected cells
T1 sequence (P08908 1-422): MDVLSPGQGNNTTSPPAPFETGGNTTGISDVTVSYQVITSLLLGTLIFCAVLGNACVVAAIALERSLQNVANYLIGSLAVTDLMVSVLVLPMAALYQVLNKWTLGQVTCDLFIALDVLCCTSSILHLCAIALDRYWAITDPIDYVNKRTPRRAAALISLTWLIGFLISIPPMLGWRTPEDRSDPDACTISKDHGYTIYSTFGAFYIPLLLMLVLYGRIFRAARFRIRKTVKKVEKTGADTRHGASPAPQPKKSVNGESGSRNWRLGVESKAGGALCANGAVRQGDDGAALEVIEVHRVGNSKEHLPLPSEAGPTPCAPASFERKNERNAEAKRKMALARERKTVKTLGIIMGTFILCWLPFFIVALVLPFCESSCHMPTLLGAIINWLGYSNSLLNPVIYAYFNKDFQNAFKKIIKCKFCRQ
The experiment in a line: [3H]-8-OH-DPAT radioligand binding assay, HEK293 cells. The conditions noted are these: mean of three experiments. As to the method: All experiments were carried out according to the previously published procedures.[41]−[43] HEK293 cells stably expressing human 5-HT1A, 5-HT6, 5-HT7b, and D2L receptors (prepared with the use of Lipofectamine 2000) or CHO-K1 cells with plasmid containing the sequence coding for the human serotonin 5-HT2A receptor (PerkinElmer) were maintained at 37 °C in a humidified atmosphere containing 5% CO2 and grown in Dulbecco’s modified Eagle’s medium containing 10% dialyzed fetal bovine serum and 500 μg/mL G418 sulfate. For membrane preparation, cells were cultured in 150 cm^2 flasks, grown to 90% confluence, washed twice with prewarmed to 37 °C phosphate buffered saline (PBS), and centrifuged (200g) in PBS containing 0.1 mM EDTA and 1 mM dithiothreitol. Prior to membrane preparation, pellets were stored at −80 °C. Cell pellets were thawed and homogenized in 10 volumes of assay buffer using an Ultra Turrax tissue homogenizer and centrifuged twice at 35 000g for 15 min at 4 °C, with incubation for 15 min at 37 °C between the centrifugations. The composition of the assay buffers was experimentally selected to achieve the maximum signal window (more details in Supporting Information). All assays were carried out in a total volume of 200 μL in 96-well plates for 1 h at 37 °C except 5-HT1AR and 5-HT2AR which were incubated at room temperature and 27 °C, respectively. The process of equilibration was terminated by rapid filtration through Unifilter plates with a 96-well cell harvester, and radioactivity retained on the filters was quantified on a Microbeta plate reader (PerkinElmer, USA). For displacement studies the assay samples contained the following as radioligands (PerkinElmer, USA): 2.5 nM [^3H]-8-OH-DPAT (135.2 Ci/mmol) for 5-HT1AR; 1 nM [^3H]-ketanserin (53.4 Ci/mmol) for 5-HT2AR; 2 nM [^3H]-LSD (83.6 Ci/mmol) for 5-HT6R; 0.8 nM [^3H]-5-CT (39.2 Ci/mmol) for 5-HT7R or 2.5 nM [^3H]-raclopride (76.0 Ci/mmol) for D2LR. Nonspecific binding was defined in the presence of 10 μM 5-HT in 5-HT1AR and 5-HT7R binding experiments, whereas 20 μM mianserin, 10 μM methiothepine, and 10 μM haloperidol were used in 5-HT2AR, 5-HT6R, and D2LR assays, respectively. Each compound was tested in triplicate at seven concentrations (10^–10–10^–4 M). The inhibition constants (Ki) were calculated from the Cheng–Prusoff equation.[44]

A further test concerns the target 5-HT6R (Homo sapiens, UniProt P50406). The experiment in a line: Basal cAMP production (constitutive Gs signaling) in NG108-15 cells transiently expressing 5-HT6R, CAMYEL BRET. The test is classed as cell-based. On the set-up: expressed in transfected cells; host or cells: NG108-15 (transient, Lipofectamine 2000, cotransfected with the CAMYEL sensor). The conditions noted are these: for functional profile: 5-HT6R-dependent Gs signaling, NG108-15 cells; for IC50: decrease of basal cAMP, NG108-15 cells transiently expressing 5-HT6R. As to the method:
NG108-15 cells were grown in Dulbecco’s modified Eagle’s medium (DMEM) supplemented with 10% dialyzed fetal calf serum, 2% hypoxanthine/aminopterin/thymidine (Life Technologies), and antibiotics. cAMP measurement was performed in cells transiently expressing 5-HT6R using the bioluminescence resonance energy transfer (BRET) sensor for cAMP, CAMYEL (cAMP sensor using YFP-Epac-RLuc).[45] NG108-15 cells were cotransfected in suspension with 5-HT6R (0.5 μg DNA/million cells) and CAMYEL constructs (1 μg DNA/million cells), using Lipofectamine 2000 according to the manufacturer’s protocol, and plated in white 96-well plates (Greiner) at a density of 50 000 cells per well. […] Coelanterazine H (Molecular Probes) was added at a final concentration of 5 μM and left at room temperature for 5 min. BRET was measured using a Mithras LB 940 plate reader (Berthold Technologies).
Background: cAMP levels reflect the balance of adenylyl cyclase and phosphodiesterase activity.

The target of the next test is T2, 5-HT2AR (Homo sapiens, UniProt P28223).
T2 construct: host or cells: CHO-K1
T2 sequence (P28223 whole entry): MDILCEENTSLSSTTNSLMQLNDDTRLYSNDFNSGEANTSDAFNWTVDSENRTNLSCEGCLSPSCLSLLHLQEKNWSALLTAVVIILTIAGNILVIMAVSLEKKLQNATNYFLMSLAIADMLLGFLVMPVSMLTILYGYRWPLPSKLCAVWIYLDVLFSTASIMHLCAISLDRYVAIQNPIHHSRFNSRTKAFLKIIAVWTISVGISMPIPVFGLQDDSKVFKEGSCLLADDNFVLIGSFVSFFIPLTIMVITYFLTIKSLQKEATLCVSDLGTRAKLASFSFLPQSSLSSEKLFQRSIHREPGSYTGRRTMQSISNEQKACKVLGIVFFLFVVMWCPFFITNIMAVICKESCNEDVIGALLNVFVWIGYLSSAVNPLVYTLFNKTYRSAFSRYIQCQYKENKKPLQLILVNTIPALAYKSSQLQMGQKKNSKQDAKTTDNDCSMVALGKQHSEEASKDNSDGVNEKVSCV
The experiment in a line: [3H]-ketanserin radioligand binding assay, CHO-K1 cells. The conditions noted are these: mean of three experiments.

By Ki is commonly meant a measure of affinity in units of concentration, obtained from inhibition or displacement. Read a low Ki as tighter binding. Usually IC50 stands for the concentration that inhibits the measured activity by half. Higher therefore signals a need for much substance.

Sequence of 5-HT6R (P50406 whole entry): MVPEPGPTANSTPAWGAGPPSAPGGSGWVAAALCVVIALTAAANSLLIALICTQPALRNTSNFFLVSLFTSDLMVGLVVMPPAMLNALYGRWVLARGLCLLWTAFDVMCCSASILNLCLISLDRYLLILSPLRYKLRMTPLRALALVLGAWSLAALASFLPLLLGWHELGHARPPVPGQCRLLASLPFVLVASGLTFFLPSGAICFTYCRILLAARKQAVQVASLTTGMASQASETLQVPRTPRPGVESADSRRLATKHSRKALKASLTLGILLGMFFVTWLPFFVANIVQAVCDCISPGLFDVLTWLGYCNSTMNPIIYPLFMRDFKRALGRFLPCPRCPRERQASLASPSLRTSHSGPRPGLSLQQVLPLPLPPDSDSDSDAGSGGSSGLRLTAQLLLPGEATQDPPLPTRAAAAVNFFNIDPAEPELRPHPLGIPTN

At 5-HT1AR, `O=C(N[C@@H]1CCNC1)c1ccn(S(=O)(=O)c2cccc(Cl)c2)c1-c1ccc(F)cc1` [Compound 27, (R)-2-(4-Fluorophenyl)-1-[(3-chlorophenyl)sulfonyl]-N-(pyrrolidin-3-yl)-1H-pyrrole-3-carboxamide] displayed a Ki of 53.7 µM. For the same compound, on 5-HT6R, the functional profile entry is given as “inverse agonist” and half-maximal inhibition (IC50) required 0.265 µM. Further, affinity on 5-HT2AR was put at a Ki of 13.5 µM.
The corresponding values for `O=C(N[C@H]1CCNC1)c1ccn(S(=O)(=O)c2cccc(Cl)c2)c1-c1ccc(F)cc1` [Compound 28, (S)-2-(4-Fluorophenyl)-1-[(3-chlorophenyl)sulfonyl]-N-(pyrrolidin-3-yl)-1H-pyrrole-3-carboxamide] are 61.5 µM, “inverse agonist”, 0.14 µM and 8.57 µM.

The record behind these values is PMC8041276 (ACS Chemical Neuroscience, 2021).
